In publication PMC4946967 (ACS chemical biology, 2016):
Changes are numbered by the printed parent chain. Entries after “also recorded” stand apart in the source; their conditions may differ.

Columns and labels:
[1] = test system: Flp-In 293 T-REx cells expressing D57N-α-Flag
[2] = test system: Flp-In 293 T-REx cells expressing RNR-α-Flag
[3] = target: T1, mutant (D57N)-mouse(m)RNR-α (Mus musculus, UniProt P07742, D57N); format: cell-based; conditions: 3 h treatment; 5, 50, 300 μM ClF, ClA, FlUMP; D57N-mRNR-α 3T3 cells
T1 sequence (P07742 1-792 D57N): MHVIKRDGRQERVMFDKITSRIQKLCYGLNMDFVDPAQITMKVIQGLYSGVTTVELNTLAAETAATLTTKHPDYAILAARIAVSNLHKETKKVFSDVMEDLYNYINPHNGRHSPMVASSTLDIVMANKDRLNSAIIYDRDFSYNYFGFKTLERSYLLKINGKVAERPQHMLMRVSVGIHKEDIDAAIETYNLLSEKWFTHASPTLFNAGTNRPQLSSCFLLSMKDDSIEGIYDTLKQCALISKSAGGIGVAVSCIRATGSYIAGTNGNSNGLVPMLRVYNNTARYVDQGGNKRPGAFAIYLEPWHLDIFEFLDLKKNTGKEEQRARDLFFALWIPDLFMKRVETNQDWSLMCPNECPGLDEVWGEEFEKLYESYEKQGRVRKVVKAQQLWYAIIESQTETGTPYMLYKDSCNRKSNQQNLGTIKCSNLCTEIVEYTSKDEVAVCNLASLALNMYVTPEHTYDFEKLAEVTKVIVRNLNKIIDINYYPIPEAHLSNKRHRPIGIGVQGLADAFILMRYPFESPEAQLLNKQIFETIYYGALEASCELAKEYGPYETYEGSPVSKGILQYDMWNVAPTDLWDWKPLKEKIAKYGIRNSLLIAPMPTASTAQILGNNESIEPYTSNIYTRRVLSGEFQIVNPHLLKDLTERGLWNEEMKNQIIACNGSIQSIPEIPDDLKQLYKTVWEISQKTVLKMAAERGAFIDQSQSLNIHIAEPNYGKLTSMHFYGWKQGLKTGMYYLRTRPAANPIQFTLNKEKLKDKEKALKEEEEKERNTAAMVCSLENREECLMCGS

D57N-human RNR-α mutant = target: T2, D57N-human RNR-α mutant (Homo sapiens, UniProt P23921, D57N); conditions: cited from earlier work
T2 sequence (P23921 1-792 D57N): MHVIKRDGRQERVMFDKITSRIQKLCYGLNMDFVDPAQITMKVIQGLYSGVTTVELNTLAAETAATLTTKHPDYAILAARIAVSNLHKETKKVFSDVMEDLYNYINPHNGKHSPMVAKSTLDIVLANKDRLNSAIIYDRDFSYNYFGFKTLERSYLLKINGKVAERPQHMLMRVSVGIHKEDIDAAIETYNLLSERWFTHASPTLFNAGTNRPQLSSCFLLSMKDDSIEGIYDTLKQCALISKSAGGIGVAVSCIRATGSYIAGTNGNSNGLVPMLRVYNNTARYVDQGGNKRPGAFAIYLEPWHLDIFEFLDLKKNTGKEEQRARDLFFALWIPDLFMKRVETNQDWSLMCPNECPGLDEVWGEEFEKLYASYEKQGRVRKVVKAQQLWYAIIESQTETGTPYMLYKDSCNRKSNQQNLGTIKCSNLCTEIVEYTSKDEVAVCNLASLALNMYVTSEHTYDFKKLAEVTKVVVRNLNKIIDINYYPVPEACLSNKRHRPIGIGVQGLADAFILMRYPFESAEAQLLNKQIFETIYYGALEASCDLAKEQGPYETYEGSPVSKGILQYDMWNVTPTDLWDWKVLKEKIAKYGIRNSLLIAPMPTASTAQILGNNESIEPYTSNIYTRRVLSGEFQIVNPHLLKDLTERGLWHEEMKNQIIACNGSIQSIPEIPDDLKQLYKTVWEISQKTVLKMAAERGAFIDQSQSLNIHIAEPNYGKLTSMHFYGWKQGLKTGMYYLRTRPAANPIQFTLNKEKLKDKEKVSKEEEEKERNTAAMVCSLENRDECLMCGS

E. coli RNR = conditions: cited from earlier work
RNR-α [4] = target: T3, RNR-α (Homo sapiens, UniProt P23921); test: RNR-α-specific CDP/ATP-reductase activity inhibition assay; format: biochemical
T3 sequence (P23921 1-792): T2 sequence (P23921 1-792 D57N) with N57D

RNR-α [5] = target: T3, RNR-α; conditions: cited from earlier work

Nc1nc(Cl)nc2c1ncn2[C@@H]1O[C@H](CO)[C@@H](O)[C@@H]1F [ClF, clofarabine]
protection against cytotoxicity upon tet induction relative to noninduced [1]: > 20 fold | effect of RNR-α overexpression on cytotoxicity relative to noninduced cells [2]: small effect on the EC50 | RNR reductase activity in D57N-α-expressing lines after drug treatment [3]: resistance

Nc1nc(Cl)nc2c1ncn2[C@@H]1O[C@H](COP(=O)(O)OP(=O)(O)O)[C@@H](O)[C@@H]1F [ClFDP, clofarabine diphosphate]
inhibition of D57N-α-specific RNR activity (D57N-human RNR-α mutant): can inhibit; also recorded: able to inhibit both wt- and D57N-α with similar potency | inhibition of E. coli RNR (E. coli RNR): failed to inhibit | higher affinity than ClADP and FlUDP (RNR-α [4]): 10–100 fold

Nc1ccn([C@@H]2O[C@H](COP(=O)(O)OP(=O)(O)OP(=O)(O)O)[C@@H](O)C2(F)F)c(=O)n1 [F2CTP]
effect on RNR-α oligomeric state or holoenzyme activity (RNR-α [5]): no effect
